Measurements reported in ChEMBL document CHEMBL3124815, “Discovery of a selective kinase inhibitor (TAK-632) targeting pan-RAF inhibition: design, synthesis, and biological evaluation of C-7-substituted 1,3-benzothiazole derivatives” (J Med Chem, 2013).

Key:
Homo sapiens = species on record: Homo sapiens; assay: Selectivity factor, ratio of IC50 for VEGFR2 (unknown origin) to IC50 for N-terminal FLAG-tagged recombinant BRAF-V600E (unknown origin) expressed in baculovirus system
[1] = biological target: T1, Serine/threonine-protein kinase B-raf (Homo sapiens, UniProt P15056, V600E); assay: Inhibition of BRAF V600E mutant in human HT-29 cells assessed as phosphorylation of MEK; format: cell-based
T1 sequence (P15056 2-766 V600E limits assumed): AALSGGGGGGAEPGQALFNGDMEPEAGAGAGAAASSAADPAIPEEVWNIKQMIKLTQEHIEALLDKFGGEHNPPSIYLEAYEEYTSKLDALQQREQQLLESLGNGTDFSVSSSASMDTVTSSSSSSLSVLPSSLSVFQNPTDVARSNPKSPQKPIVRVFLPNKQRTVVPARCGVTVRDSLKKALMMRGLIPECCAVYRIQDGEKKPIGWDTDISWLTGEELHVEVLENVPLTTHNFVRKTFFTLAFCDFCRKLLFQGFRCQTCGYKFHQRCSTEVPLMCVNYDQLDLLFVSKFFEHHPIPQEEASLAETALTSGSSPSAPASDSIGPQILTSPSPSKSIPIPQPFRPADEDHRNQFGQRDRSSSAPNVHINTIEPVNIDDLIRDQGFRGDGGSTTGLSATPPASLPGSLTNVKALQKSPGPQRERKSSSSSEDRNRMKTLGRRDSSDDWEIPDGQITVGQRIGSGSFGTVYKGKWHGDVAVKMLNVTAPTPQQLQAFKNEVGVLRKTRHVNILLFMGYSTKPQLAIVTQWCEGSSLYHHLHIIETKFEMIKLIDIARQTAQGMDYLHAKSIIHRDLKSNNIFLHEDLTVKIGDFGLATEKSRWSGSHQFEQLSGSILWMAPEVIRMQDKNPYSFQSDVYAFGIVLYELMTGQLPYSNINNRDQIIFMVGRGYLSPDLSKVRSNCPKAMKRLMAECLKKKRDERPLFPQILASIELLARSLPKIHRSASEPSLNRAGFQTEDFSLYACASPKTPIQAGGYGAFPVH

Mus musculus = assay: AUC (0 to 8 hrs) in mouse at 10 mg/kg, po; format: ADME, organism-based, Blood; set-up: time < 8 hr, dose 10 mg/kg, route oral; conditions: in vivo
[2] = biological target: T2, Vascular endothelial growth factor receptor 2 (Homo sapiens, UniProt P35968); assay: Inhibition of VEGFR2 (unknown origin) using biotinylated poly-GluTyr (4:1) as substrate pretreated for 5 mins before substrate addition measured after overnight incubation
T2 sequence (P35968 whole entry): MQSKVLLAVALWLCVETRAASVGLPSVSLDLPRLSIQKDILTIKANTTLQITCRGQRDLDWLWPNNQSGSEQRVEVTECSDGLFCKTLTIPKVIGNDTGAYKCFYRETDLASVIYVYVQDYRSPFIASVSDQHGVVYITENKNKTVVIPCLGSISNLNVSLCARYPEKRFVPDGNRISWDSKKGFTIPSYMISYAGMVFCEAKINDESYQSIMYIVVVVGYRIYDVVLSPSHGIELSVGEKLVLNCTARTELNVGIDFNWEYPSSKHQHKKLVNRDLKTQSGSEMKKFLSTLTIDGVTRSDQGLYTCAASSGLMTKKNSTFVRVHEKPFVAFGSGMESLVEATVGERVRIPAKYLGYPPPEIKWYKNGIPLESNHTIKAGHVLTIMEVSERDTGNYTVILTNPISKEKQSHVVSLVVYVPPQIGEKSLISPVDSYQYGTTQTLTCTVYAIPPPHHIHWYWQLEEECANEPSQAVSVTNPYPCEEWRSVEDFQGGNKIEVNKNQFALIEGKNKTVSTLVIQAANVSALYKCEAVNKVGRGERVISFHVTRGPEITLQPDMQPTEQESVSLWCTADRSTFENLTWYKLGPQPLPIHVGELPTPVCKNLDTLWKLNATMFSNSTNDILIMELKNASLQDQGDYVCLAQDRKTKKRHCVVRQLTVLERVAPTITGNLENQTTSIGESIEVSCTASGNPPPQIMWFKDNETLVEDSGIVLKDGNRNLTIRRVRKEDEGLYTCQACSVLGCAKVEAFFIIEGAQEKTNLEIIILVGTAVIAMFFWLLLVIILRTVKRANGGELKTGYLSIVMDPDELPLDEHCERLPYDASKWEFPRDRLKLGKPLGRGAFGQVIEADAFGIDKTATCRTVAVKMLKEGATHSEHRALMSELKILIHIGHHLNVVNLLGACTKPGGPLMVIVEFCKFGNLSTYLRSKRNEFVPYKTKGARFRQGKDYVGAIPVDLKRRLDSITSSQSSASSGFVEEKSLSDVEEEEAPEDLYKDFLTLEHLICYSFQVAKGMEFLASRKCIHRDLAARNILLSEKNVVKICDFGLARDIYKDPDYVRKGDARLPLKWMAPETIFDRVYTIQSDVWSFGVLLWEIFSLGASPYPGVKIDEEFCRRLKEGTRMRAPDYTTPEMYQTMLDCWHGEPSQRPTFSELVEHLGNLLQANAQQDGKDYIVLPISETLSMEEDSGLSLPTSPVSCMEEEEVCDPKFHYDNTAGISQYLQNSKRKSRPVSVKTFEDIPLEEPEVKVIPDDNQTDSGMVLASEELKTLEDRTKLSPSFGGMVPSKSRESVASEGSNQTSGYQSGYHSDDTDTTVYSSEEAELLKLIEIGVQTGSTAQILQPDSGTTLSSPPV

[3] = biological target: T1, Serine/threonine-protein kinase B-raf; assay: Inhibition of N-terminal FLAG-tagged recombinant BRAF V600E mutant (unknown origin) expressed in baculovirus system preincubated for 10 mins before substrate addition measured after 20 mins by scintillation counting
[4] = biological target: T1, Serine/threonine-protein kinase B-raf; assay: Inhibition of BRAF V600E mutant (unknown origin)
[5] = biological target: T2, Vascular endothelial growth factor receptor 2; assay: Inhibition of VEGFR2 (unknown origin)

| SMILES | Ratio IC50 (Homo sapiens) | IC50 [1] | AUC (Mus musculus) | IC50 [2] | IC50 [3] | IC50 [4] | IC50 [5] |
| --- | --- | --- | --- | --- | --- | --- | --- |
| N#Cc1c(Oc2cccc(NC(=O)Cc3cccc(C(F)(F)F)c3)c2)ccc2nc(NC(=O)C3CC3)sc12 | 120 | 360 nM | 3780 ng·h/mL |  |  |  |  |
| N#Cc1c(Oc2cccc(NC(=O)Nc3cccc(C(F)(F)F)c3)c2)ccc2nc(NC(=O)C3CC3)sc12 | 19 | 75 nM | 99 ng·h/mL | 350 nM | 18 nM |  |  |
| CC(C)(C#N)c1cccc(C(=O)Nc2cccc(Oc3ccc4nc(NC(=O)C5CC5)sc4c3)c2)c1 | 0.56 |  |  |  |  |  |  |
| N#Cc1c(Oc2ccc(F)c(NC(=O)Nc3ccc(C(F)(F)F)cc3)c2)ccc2nc(NC(=O)C3CC3)sc12 | 25 | 81 nM | 158 ng·h/mL |  |  |  |  |
| CC(C)(C#N)c1cccc(C(=O)Nc2cccc(Oc3ccc4nc(NC(=O)C5CC5)sc4c3C#N)c2)c1 | 5.8 | 34 nM | 149 ng·h/mL |  |  |  |  |
| CC(C)(C#N)c1cccc(C(=O)Nc2cccc(Oc3ccc4nc(NC(=O)C5CC5)sc4c3CO)c2)c1 | 0.31 | 170 nM |  |  |  |  |  |
| N#CC1(c2cccc(C(=O)Nc3cc(Oc4ccc5nc(NC(=O)C6CC6)sc5n4)ccc3F)c2Cl)CC1 |  |  |  |  |  | 5.6 nM | 2.8 nM |
| CC(C)(C#N)c1cccc(C(=O)Nc2cccc(Oc3ccc4nc(NC(=O)C5CC5)sc4c3[N+](=O)[O-])c2)c1 | 2.8 | 29 nM |  |  |  |  |  |
| N#Cc1c(Oc2cccc(NC(=O)Nc3ccc(C(F)(F)F)cc3)c2)ccc2nc(NC(=O)C3CC3)sc12 | 18 | 110 nM | 431 ng·h/mL |  |  |  |  |
| COC(=O)c1c(Oc2cccc(NC(=O)c3cccc(C(C)(C)C#N)c3)c2)ccc2nc(NC(=O)C3CC3)sc12 | 2.8 | 24 nM |  |  |  |  |  |
| N#Cc1c(Oc2ccc(F)c(NC(=O)Nc3cccc(C(F)(F)F)c3)c2)ccc2nc(NC(=O)C3CC3)sc12 | 15 | 22 nM |  |  |  |  |  |
| N#Cc1c(Oc2cccc(NC(=O)Cc3ccc(C(F)(F)F)cc3)c2)ccc2nc(NC(=O)C3CC3)sc12 | 20 | 320 nM | 123 ng·h/mL |  |  |  |  |
| N#Cc1c(Oc2cccc(NC(=O)Nc3ccccc3C(F)(F)F)c2)ccc2nc(NC(=O)C3CC3)sc12 | 6.3 | > 500 nM | 58 ng·h/mL |  |  |  |  |
| CC(C)(C#N)c1cccc(C(=O)Nc2cccc(Oc3ccc4nc(NC(=O)C5CC5)sc4c3C(=O)O)c2)c1 | 0.051 |  |  | 15 nM | 290 nM |  |  |
| N#Cc1c(Oc2cccc(NC(=O)Cc3ccccc3C(F)(F)F)c2)ccc2nc(NC(=O)C3CC3)sc12 | 7.1 | > 500 nM | 255 ng·h/mL |  |  |  |  |
